As a reminder, the EC50 is the concentration needed to bring the measured effect to its halfway point.

Drawing on patent US9339541B2, “Thiophosphate nucleosides for the treatment of HCV” (priority 2013, dated 2016), this text covers EC50 for 9 molecules.

The subject of this assay is HCV genotype 1b replicon. In kind it is cell-based. The following applies: Huh-7-derived cell line (Zluc), HCV genotype 1b replicon with luciferase reporter, 72 hours of incubation. A general note: A replicon is a self-replicating genome or part of one, used to study replication in cells.
On to `CC(C)OC(=O)[C@H](C)NP(=O)(OC[C@H]1O[C@@H](n2ccc(=O)[nH]c2=O)[C@](C)(Cl)[C@@H]1O)SC1CCCC1` (single isomer, unassigned) [8b Diastereomer 1], for which the 50% effective concentration (EC50) fell in the range of 1 to 10 µM.
The result for `CCOC(=O)CCSP(=O)(N[C@@H](C)C(=O)OC(C)C)OC[C@H]1O[C@@H](n2ccc(=O)[nH]c2=O)[C@](C)(O)[C@@H]1O` (stereo partly drawn) [Compound 15b] reads over 10 µM.
For `COC(=O)N[C@@H](CSP(=O)(N[C@@H](C)C(=O)OC(C)C)OC[C@H]1O[C@@H](n2cnc3c(OC)nc(N)nc32)[C@](C)(O)[C@@H]1O)C(=O)OC(C)C` (stereo partly drawn) [Compound 2by], the EC50 lay within 1 to 10 µM.
The result for `COC(=O)CSP(=O)(N[C@@H](C)C(=O)OC(C)C)OC[C@H]1O[C@@H](n2ccc(=O)[nH]c2=O)[C@](C)(Cl)[C@@H]1O` (stereo partly drawn) [Compound 17b] reads over 10 µM.
The molecule `CCOC(=O)[C@H](C)NP(=O)(OC[C@H]1O[C@@H](n2cnc3c(OCC)nc(N)nc32)[C@](C)(O)[C@@H]1O)SCC` (stereo partly drawn) [Compound 10b] gave an EC50 of at most 0.25 µM.
The result for `CC(C)OC(=O)[C@H](C)NP(=O)(OC[C@H]1O[C@@H](n2ccc(=O)[nH]c2=O)[C@](C)(O)[C@@H]1O)SCC1NC(=O)NC1=O` (single isomer, unassigned) [4b Diastereomer 1] reads over 10 µM.
Regarding `CCOC(=O)[C@H](C)NP(=O)(OC[C@H]1O[C@@H](n2cnc3c(=O)[nH]c(N)nc32)[C@](C)(O)[C@@H]1O)SCC` (stereo partly drawn) [Compound 13b], the EC50 was 1 to 10 µM.
Consider `CC(C)OC(=O)[C@@H](C)NP(=O)(OC[C@H]1O[C@@H](n2ccc(=O)[nH]c2=O)[C@](C)(Cl)[C@@H]1O)SC1CCCC1` (single isomer, unassigned) [8a Diastereomer 1], for which the EC50 is over 10 µM.
The result for `CCOc1nc(N)nc2c1ncn2[C@@H]1O[C@H](COP(=O)(N[C@@H](C)C(=O)OC(C)C)SCC2NC(=O)NC2=O)[C@@H](O)[C@@]1(C)F` (single isomer, unassigned) [3b Diastereomer 1] reads 1 to 10 µM.
